Laboratory results reported in US20260028365A1 (BIOGEN MA INC., priority 2022, published 2026).
Read-outs that look alike come from different tables or passages of the source.

Columns and labels:
[1] = target: JH2 domain of human Tyk2 (Homo sapiens (Human), UniProt P29597); experiment: JH2 Biochemical Assay (TR-FRET probe displacement); format: binding
[2] = target: Tyk2 (Homo sapiens (Human), UniProt P29597); experiment: pSTAT4 Cell Assay (MSD, NK92 cells); format: cell-based
[3] = target: JAK2 (Homo sapiens (Human), UniProt O60674); experiment: pSTAT5 Cell Assay (MSD, TF1 cells); format: cell-based; settings: IL-3 stimulated
How it was run: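 Serum-starved TF1 cells were pretreated with compound for 1 h (10-point four-fold series from 10 μM), then stimulated with 30 ng/mL IL-3 for 15 min. pSTAT5 in lysates was measured by MSD immunoassay. IC50 came from a 4-parameter logistic fit.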

[4] = target: JAK1 (Homo sapiens (Human), UniProt P23458); experiment: pSTAT3 Cell Assay (MSD, TF1 cells); format: cell-based; settings: IL-6 stimulated
How it was run: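 Serum starvation, 1 h compound (10 pt, 4-fold from 10 μM), IL-6 15 min, lysis. pSTAT3 read by MSD immunoassay, anti-STAT3 Abs. Normalized % activity vs log[cpd], 4-PL fit → IC50.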

[5] = JH2 domain of human Tyk2, TR-FRET probe displacement
[6] = TR-FRET probe displacement, JH2 domain

JH2 domain of human Tyk2, sequence (P29597 575-876): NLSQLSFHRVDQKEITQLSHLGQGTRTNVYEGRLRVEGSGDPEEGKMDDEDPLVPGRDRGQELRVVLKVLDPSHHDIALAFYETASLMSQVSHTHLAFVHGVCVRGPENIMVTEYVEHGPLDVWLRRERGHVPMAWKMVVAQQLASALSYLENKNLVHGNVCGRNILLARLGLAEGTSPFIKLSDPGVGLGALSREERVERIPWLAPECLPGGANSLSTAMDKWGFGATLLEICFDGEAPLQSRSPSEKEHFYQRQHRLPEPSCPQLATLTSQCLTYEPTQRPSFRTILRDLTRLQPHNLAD
Tyk2, sequence (P29597 whole entry): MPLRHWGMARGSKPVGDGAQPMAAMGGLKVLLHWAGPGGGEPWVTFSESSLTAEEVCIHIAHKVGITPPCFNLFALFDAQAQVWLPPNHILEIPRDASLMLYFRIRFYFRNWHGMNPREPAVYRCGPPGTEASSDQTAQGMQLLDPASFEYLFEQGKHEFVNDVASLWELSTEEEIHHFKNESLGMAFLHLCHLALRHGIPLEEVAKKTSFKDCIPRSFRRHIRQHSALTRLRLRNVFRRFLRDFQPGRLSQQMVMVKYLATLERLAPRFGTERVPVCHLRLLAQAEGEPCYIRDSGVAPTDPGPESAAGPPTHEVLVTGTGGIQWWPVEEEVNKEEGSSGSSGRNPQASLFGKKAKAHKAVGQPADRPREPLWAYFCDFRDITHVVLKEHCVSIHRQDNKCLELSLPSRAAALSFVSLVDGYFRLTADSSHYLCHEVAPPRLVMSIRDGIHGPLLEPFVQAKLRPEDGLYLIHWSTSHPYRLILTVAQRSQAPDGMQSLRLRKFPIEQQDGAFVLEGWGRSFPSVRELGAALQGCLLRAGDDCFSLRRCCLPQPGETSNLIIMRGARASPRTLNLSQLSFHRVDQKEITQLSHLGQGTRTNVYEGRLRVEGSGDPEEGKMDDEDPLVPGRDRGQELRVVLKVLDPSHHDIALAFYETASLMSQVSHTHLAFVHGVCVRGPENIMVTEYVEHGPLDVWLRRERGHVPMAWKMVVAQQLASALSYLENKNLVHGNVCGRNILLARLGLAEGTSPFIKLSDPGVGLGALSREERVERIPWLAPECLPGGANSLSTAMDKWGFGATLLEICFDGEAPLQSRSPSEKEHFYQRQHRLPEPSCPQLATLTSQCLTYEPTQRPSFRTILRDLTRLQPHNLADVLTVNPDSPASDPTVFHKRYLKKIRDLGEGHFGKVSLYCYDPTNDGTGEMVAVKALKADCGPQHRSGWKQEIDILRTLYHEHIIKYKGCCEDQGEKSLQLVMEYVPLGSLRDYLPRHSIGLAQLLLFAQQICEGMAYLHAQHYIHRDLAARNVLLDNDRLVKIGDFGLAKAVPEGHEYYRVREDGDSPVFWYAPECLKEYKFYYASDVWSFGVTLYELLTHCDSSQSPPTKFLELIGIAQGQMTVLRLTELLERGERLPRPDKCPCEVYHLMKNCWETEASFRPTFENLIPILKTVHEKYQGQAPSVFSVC
JAK1, sequence (P23458 whole entry): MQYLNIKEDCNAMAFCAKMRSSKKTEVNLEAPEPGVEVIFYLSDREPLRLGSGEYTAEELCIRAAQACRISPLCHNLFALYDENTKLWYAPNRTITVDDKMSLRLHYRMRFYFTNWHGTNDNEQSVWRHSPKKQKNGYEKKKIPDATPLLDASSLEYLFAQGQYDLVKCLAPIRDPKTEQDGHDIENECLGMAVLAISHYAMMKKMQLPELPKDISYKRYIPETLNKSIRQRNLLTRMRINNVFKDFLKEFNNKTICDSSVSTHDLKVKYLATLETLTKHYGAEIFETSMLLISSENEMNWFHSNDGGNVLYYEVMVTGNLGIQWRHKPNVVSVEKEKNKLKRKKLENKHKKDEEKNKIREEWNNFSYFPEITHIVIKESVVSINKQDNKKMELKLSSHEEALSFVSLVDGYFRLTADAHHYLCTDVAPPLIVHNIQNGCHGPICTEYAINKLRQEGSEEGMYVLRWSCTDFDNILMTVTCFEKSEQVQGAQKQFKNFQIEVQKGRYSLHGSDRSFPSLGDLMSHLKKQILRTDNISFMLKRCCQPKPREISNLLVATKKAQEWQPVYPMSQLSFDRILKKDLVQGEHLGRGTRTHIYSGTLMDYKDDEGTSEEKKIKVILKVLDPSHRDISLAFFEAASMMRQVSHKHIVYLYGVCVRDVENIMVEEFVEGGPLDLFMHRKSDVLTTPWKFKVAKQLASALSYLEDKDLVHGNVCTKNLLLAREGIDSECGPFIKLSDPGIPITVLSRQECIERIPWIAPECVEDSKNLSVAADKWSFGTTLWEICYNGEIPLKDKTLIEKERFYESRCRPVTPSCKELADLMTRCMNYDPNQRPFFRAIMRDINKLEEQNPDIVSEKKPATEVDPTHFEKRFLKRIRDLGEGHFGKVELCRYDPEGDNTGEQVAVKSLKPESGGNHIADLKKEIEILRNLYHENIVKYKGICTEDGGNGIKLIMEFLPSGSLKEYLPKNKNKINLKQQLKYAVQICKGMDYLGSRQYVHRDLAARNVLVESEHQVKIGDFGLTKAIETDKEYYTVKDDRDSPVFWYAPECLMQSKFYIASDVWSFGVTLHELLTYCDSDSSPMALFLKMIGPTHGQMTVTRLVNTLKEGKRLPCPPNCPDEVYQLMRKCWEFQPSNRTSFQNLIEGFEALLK
JAK2, sequence (O60674 whole entry): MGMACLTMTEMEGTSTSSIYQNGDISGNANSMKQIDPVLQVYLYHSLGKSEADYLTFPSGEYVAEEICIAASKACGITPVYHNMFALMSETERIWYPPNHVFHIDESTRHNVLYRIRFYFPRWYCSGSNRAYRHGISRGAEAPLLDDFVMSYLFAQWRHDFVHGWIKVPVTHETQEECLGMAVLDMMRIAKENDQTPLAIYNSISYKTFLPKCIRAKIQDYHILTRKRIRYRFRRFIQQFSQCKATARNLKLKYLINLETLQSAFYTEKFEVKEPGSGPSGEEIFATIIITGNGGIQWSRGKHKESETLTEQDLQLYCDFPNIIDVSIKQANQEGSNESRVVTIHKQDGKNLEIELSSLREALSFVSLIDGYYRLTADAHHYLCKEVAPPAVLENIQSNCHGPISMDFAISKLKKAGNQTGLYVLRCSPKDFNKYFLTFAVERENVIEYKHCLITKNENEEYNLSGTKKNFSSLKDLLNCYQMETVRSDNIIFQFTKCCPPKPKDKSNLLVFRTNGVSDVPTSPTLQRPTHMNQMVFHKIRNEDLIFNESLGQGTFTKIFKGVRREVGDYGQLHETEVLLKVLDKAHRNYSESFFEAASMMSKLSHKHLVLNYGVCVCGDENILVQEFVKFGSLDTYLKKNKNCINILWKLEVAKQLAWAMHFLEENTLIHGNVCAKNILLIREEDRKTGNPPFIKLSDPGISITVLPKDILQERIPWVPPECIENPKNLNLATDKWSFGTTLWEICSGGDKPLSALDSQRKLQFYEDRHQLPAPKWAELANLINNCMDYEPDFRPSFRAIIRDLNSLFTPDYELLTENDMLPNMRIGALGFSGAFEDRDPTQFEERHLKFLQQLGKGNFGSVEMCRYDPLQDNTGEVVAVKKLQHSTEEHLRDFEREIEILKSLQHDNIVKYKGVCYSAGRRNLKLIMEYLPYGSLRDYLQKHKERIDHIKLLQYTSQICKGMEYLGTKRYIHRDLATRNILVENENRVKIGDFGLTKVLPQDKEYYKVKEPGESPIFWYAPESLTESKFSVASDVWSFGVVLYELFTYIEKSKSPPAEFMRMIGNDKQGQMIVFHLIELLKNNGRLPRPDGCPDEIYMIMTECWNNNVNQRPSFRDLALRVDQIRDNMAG

SMILES	IC50 [1, 5] [nM]	IC50 ([2]; MSD) [nM]	IC50 ([3]; MSD) [nM]	IC50 ([4]; MSD) [nM]	IC50 [1, 6] [nM]	IC50 [2] [nM]	IC50 [3] [nM]	IC50 [4] [nM]
COCc1cccc(-c2cnc(NC(C)=O)cc2Nc2cc(C)nc(C(C)(F)F)n2)n1 [Example 636, N-(4′-((2-(1,1-difluoroethyl)-6-methylpyrimidin-4-yl)amino)-6-(methoxymethyl)-[2,3′-bipyridin]-6′-yl)acetamide]	≤ 10	≤ 10	≥ 1000	≥ 1000	–	–	–	–
CC(=O)Nc1cc(Nc2cc(C)nc(C(C)(F)F)n2)c(-c2ccc(CN(C)C)cn2)cn1 [Example 648, N-(4′-((2-(1,1-difluoroethyl)-6-methylpyrimidin-4-yl)amino)-5-((dimethylamino)methyl)-[2,3′-bipyridin]-6′-yl)acetamide]	≤ 10	≤ 10	≥ 1000	≥ 1000	–	–	–	–
CC(=O)Nc1cc(Nc2cc(C)nc(C(C)(F)F)n2)c(-c2ccc(N(C)C)cn2)cn1 [Example 652, N-(4′-((2-(1,1-difluoroethyl)-6-methylpyrimidin-4-yl)amino)-5-(dimethylamino)-[2,3′-bipyridin]-6′-yl)acetamide]	≤ 10	≤ 10	≥ 1000	≥ 1000	–	–	–	–
CC(=O)Nc1cc(Nc2cc(C)nc(C(C)(F)F)n2)c(-c2ncc(C#N)cn2)cn1 [Example 655, N-(5-(5-cyanopyrimidin-2-yl)-4-((2-(1,1-difluoroethyl)-6-methylpyrimidin-4-yl)amino)pyridin-2-yl)acetamide]	≤ 10	10 to 100	≥ 1000	≥ 1000	–	–	–	–
CC(=O)Nc1cc(Nc2cc(C)nc(C(C)(F)F)n2)c(-c2ncc(OC(F)F)cn2)cn1 [Example 660, N-(4-((2-(1,1-difluoroethyl)-6-methylpyrimidin-4-yl)amino)-5-(5-(difluoromethoxy)pyrimidin-2-yl)pyridin-2-yl)acetamide]	≤ 10	≤ 10	≥ 1000	≥ 1000	–	–	–	–
COCc1nccc(-c2cnc(NC(C)=O)cc2Nc2cc(C)nc(C(C)(F)F)n2)n1 [Example 661, N-(4-((2-(1,1-difluoroethyl)-6-methylpyrimidin-4-yl)amino)-5-(2-(methoxymethyl)pyrimidin-4-yl)pyridin-2-yl)acetamide]	≤ 10	≤ 10	≥ 1000	≥ 1000	–	–	–	–
CC(=O)Nc1cc(Nc2cc(C)nc(C(C)(F)F)n2)c(-c2ncccn2)cn1 [Example 668, N-(4-((2-(1,1-difluoroethyl)-6-methylpyrimidin-4-yl)amino)-5-(pyrimidin-2-yl)pyridin-2-yl)acetamide]	≤ 10	≤ 10	≥ 1000	≥ 1000	–	–	–	–
COc1ccc(-c2cnc(NC(C)=O)cc2Nc2cc(C)nc(C(C)(F)F)n2)nn1 [Example 676, N-(4-((2-(1,1-difluoroethyl)-6-methylpyrimidin-4-yl)amino)-5-(6-methoxypyridazin-3-yl)pyridin-2-yl)acetamide]	≤ 10	≤ 10	≥ 1000	≥ 1000	–	–	–	–
CC(=O)Nc1cc(Nc2cc(C)nc(C(C)(F)F)n2)c(-c2cn3ccnc3cn2)cn1 [Example 681, N-(4-((2-(1,1-difluoroethyl)-6-methylpyrimidin-4-yl)amino)-5-(imidazo[1,2-a]pyrazin-6-yl)pyridin-2-yl)acetamide]	≤ 10	≤ 10	≥ 1000	≥ 1000	–	–	–	–
CC(=O)Nc1cc(Nc2ccnc(C(C)(F)F)n2)c(-c2cn(C)c(C#N)n2)cn1 [Example 707, N-(5-(2-cyanO1-methyl-1H-imidazol-4-yl)-4-((2-(1,1-difluoroethyl)pyrimidin-4-yl)amino)pyridin-2-yl)acetamide]	≤ 10	≤ 10	≥ 1000	≥ 1000	–	–	–	–
CC(=O)Nc1cc(Nc2ccnc(C(C)(F)F)n2)c(-c2cnn(C(C)C)n2)cn1 [Example 708, N-(4-((2-(1,1-difluoroethyl)pyrimidin-4-yl)amino)-5-(2-isopropyl-2H-1,2,3-triazol-4-yl)pyridin-2-yl)acetamide]	≤ 10	≤ 10	≥ 1000	≥ 1000	–	–	–	–
CC(=O)Nc1cc(Nc2ccnc(C(C)(F)F)n2)c(-c2nnc(C(C)(C)C)s2)cn1 [Example 715, N-(5-(5-(tert-butyl)-1,3,4-thiadiazol-2-yl)-4-((2-(1,1-difluoroethyl)pyrimidin-4-yl)amino)pyridin-2-yl)acetamide]	≤ 10	≤ 10	≥ 1000	≥ 1000	–	–	–	–
CCc1cc(Nc2cc(NC(C)=O)ncc2-c2ncccn2)nc(C(C)(F)F)n1 [Example 719, N-(4-((2-(1,1-difluoroethyl)-6-ethylpyrimidin-4-yl)amino)-5-(pyrimidin-2-yl)pyridin-2-yl)acetamide]	≤ 10	≤ 10	≥ 1000	≥ 1000	–	–	–	–
CC(=O)Nc1cc(Nc2ccnc(C(C)(F)F)n2)ccn1 [Example 724, N-(4-((2-(1,1-difluoroethyl)pyrimidin-4-yl)amino)pyridin-2-yl)acetamide]	10 to 100	≥ 1000	≥ 1000	≥ 1000	–	–	–	–
COCc1cc(-c2cnc(NC(C)=O)cc2Nc2cc(C)nc(C(C)(F)F)n2)nn1C [Example 757, N-(4-((2-(1,1-difluoroethyl)-6-methylpyrimidin-4-yl)amino)-5-(5-(methoxymethyl)-1-methyl-1H-pyrazol-3-yl)pyridin-2-yl)acetamide]	–	–	–	–	≤ 10	≤ 10	≥ 1000	100 to 1000
CCc1cc(Nc2cc(NC(C)=O)ncc2-c2ccncn2)nc(C(C)(F)F)n1 [Example 799, N-(4-((2-(1,1-difluoroethyl)-6-ethylpyrimidin-4-yl)amino)-5-(pyrimidin-4-yl)pyridin-2-yl)acetamide]	–	–	–	–	≤ 10	≤ 10	≥ 1000	≥ 1000
CC(=O)Nc1cc(Nc2ccnc(C(C)(F)F)n2)c(-c2ncc(OC(F)F)cn2)cn1 [Example 825, N-(4-((2-(1,1-difluoroethyl)pyrimidin-4-yl)amino)-5-(5-(difluoromethoxy)pyrimidin-2-yl)pyridin-2-yl)acetamide]	–	–	–	–	≤ 10	10 to 100	≥ 1000	≥ 1000
CC(=O)Nc1cc(Nc2ccnc(C(C)(F)F)n2)c(-c2ccc(OC(F)F)cn2)cn1 [Example 826, N-(4′-((2-(1,1-difluoroethyl)pyrimidin-4-yl)amino)-5-(difluoromethoxy)-[2,3′-bipyridin]-6′-yl)acetamide]	–	–	–	–	≤ 10	≤ 10	≥ 1000	≥ 1000
COCc1cnc(-c2cnc(NC(C)=O)cc2Nc2cc(C)nc(C(C)(F)F)n2)cn1 [Example 834, N-(4-((2-(1,1-difluoroethyl)-6-methylpyrimidin-4-yl)amino)-5-(5-(methoxymethyl)pyrazin-2-yl)pyridin-2-yl)acetamide]	–	–	–	–	≤ 10	≤ 10	≥ 1000	≥ 1000
COc1ccc(-c2cnc(NC(C)=O)cc2Nc2ccnc(C(C)(C)F)n2)nn1 [Example 835, N-(4-((2-(2-fluoropropan-2-yl)pyrimidin-4-yl)amino)-5-(6-methoxypyridazin-3-yl)pyridin-2-yl)acetamide]	–	–	–	–	≤ 10	≤ 10	≥ 1000	≥ 1000
CCc1cc(Nc2cc(NC(C)=O)ncc2-c2cnc(COC)cn2)nc(C(C)(F)F)n1 [Example 836, N-(4-((2-(1,1-difluoroethyl)-6-ethylpyrimidin-4-yl)amino)-5-(5-(methoxymethyl)pyrazin-2-yl)pyridin-2-yl)acetamide]	–	–	–	–	≤ 10	≤ 10	≥ 1000	≥ 1000
CCc1cc(Nc2cc(NC(C)=O)ncc2-c2ncc(C3COCCO3)cn2)nc(C(C)(F)F)n1 (stereo not shown) [Example 840, N-(5-(5-(1,4-dioxan-2-yl)pyrimidin-2-yl)-4-((2-(1,1-difluoroethyl)-6-ethylpyrimidin-4-yl)amino)pyridin-2-yl)acetamide]	–	–	–	–	≤ 10	≤ 10	≥ 1000	≥ 1000
COCc1ccc(-c2cnc(NC(C)=O)cc2Nc2ccnc(C(C)(F)F)n2)nc1 [Example 851, N-(4′-((2-(1,1-difluoroethyl)pyrimidin-4-yl)amino)-5-(methoxymethyl)-[2,3′-bipyridin]-6′-yl)acetamide]	–	–	–	–	≤ 10	≤ 10	≥ 1000	≥ 1000
CC(=O)Nc1cc(Nc2ccnc(C(C)(F)F)n2)c(-c2cnc(C(C)(C)O)cn2)cn1 [Example 853, N-(4-((2-(1,1-difluoroethyl)pyrimidin-4-yl)amino)-5-(5-(2-hydroxypropan-2-yl)pyrazin-2-yl)pyridin-2-yl)acetamide]	–	–	–	–	≤ 10	10 to 100	≥ 1000	≥ 1000
CCc1cc(Nc2cc(NC(N)=O)ncc2-c2cnccn2)nc(C(C)(F)F)n1 [Example 920]	–	–	–	–	≤ 10	≤ 10	≥ 1000	≥ 1000
